Assay results: article PMC10819888, “Benzimidazole-Based Derivatives as Apoptotic Antiproliferative Agents: Design, Synthesis, Docking, and Mechanistic Studies” (Molecules, 2024)
Read-outs that look alike come from different tables or passages of the source.

How the values were obtained:
RXF 393 = assay: NCI-60 five-dose assay; format: cell-based, human; conditions: RXF 393 (Renal Cancer), 48 h
NCI-H322M = assay: NCI-60 five-dose assay; format: cell-based, human; conditions: NCI-H322M (Non-Small Cell Lung Cancer), 48 h
LOX IMVI = assay: NCI-60 five-dose assay; format: cell-based, human; conditions: LOX IMVI (Melanoma), 48 h
SF-539 = assay: NCI-60 five-dose assay; format: cell-based, human; conditions: SF-539 (CNS Cancer), 48 h
HT29 = assay: NCI-60 five-dose assay; format: cell-based, human; conditions: HT29 (Colon Cancer), 48 h
Renal Cancer subpanel = assay: NCI-60 five-dose assay, subpanel; format: cell-based, human
T-47D = assay: NCI-60 five-dose assay; format: cell-based, human; conditions: T-47D (Breast Cancer), 48 h
IGROV1 = assay: NCI-60 five-dose assay; format: cell-based, human; conditions: IGROV1 (Ovarian Cancer), 48 h
SK-OV-3 = assay: NCI-60 five-dose assay; format: cell-based, human; conditions: SK-OV-3 (Ovarian Cancer), 48 h
UACC-257 = assay: NCI-60 five-dose assay; format: cell-based, human; conditions: UACC-257 (Melanoma), 48 h
BT-549 = assay: NCI-60 five-dose assay; format: cell-based, human; conditions: BT-549 (Breast Cancer), 48 h
OVCAR-4 = assay: NCI-60 five-dose assay; format: cell-based, human; conditions: OVCAR-4 (Ovarian Cancer), 48 h
HCT-116 = assay: NCI-60 five-dose assay; format: cell-based, human; conditions: HCT-116 (Colon Cancer), 48 h
DU-145 = assay: NCI-60 five-dose assay; format: cell-based, human; conditions: DU-145 (Prostate Cancer), 48 h
CCRF-CEM = assay: NCI-60 five-dose assay; format: cell-based, human; conditions: CCRF-CEM (Leukemia), 48 h
UACC-62 = assay: NCI-60 five-dose assay; format: cell-based, human; conditions: UACC-62 (Melanoma), 48 h
NCI-H522 = assay: NCI-60 five-dose assay; format: cell-based, human; conditions: NCI-H522 (Non-Small Cell Lung Cancer), 48 h
Ovarian Cancer subpanel = assay: NCI-60 five-dose assay, subpanel; format: cell-based, human
Prostate Cancer subpanel = assay: NCI-60 five-dose assay, subpanel; format: cell-based, human
SNB-19 = assay: NCI-60 five-dose assay; format: cell-based, human; conditions: SNB-19 (CNS Cancer), 48 h
NCI-H226 = assay: NCI-60 five-dose assay; format: cell-based, human; conditions: NCI-H226 (Non-Small Cell Lung Cancer), 48 h
U251 = assay: NCI-60 five-dose assay; format: cell-based, human; conditions: U251 (CNS Cancer), 48 h
ACHN = assay: NCI-60 five-dose assay; format: cell-based, human; conditions: ACHN (Renal Cancer), 48 h
CAKI-1 = assay: NCI-60 five-dose assay; format: cell-based, human; conditions: CAKI-1 (Renal Cancer), 48 h
[1] = test system: full panel of 60 human tumor cell lines; assay: NCI-60 five-dose assay, full panel; format: cell-based
[2] = Homo sapiens, read-out: GI50 Conc. per Cell Line
[3] = Homo sapiens, read-out: LC50 (the source's name)

Compound `O=C(NN=Cc1ccc([N+](=O)[O-])cc1)c1ccc2[nH]c(-c3ccc(Cl)cc3)nc2c1` [Compound 4c, N′-(4-Nitrobenzylidene)-2-(4-chlorophenyl)-1H-benzimidazole-5-carbohydrazide] has a GI50 (RXF 393; [2]) of 2.03 µM, a CC50 (RXF 393; [3]) of 34 µM and a TGI (RXF 393) of 7.07 µM. It also gave a GI50 (NCI-H322M; [2]) of 5.04 µM, a CC50 (NCI-H322M; [3]) of over 100 µM and a TGI (NCI-H322M) of 26.40 µM. The GI50 (LOX IMVI; [2]) was 1.34 µM, the CC50 (LOX IMVI; [3]) was 7.74 µM and the TGI (LOX IMVI) was 3.22 µM. The GI50 (SF-539; [2]) was 2.73 µM, the CC50 (SF-539; [3]) was 33.8 µM and the TGI (SF-539) was 10.10 µM. The TGI (HT29) was over 100 µM, the GI50 (HT29; Homo sapiens, HT-29, read-out: GI50 Conc. per Cell Line) was 3.02 µM and the CC50 (HT29; Homo sapiens, HT-29, read-out: LC50 (the source's name)) was over 100 µM. The GI50 (Renal Cancer subpanel; Homo sapiens, Renal Cancer, average sensitivity of all subpanel cell lines, read-out: GI50 Subpanel MID b) was 4.3 µM, the “GI50 Selectivity Ratio (MID a/MID b)” value (Renal Cancer subpanel; Renal Cancer subpanel) was 0.76 and the GI50 (T-47D; Homo sapiens, T47D, read-out: GI50 Conc. per Cell Line) was 2.29 µM. The CC50 (T-47D; Homo sapiens, T47D, read-out: LC50 (the source's name)) was over 100 µM, the TGI (T-47D) was 7.21 µM and the GI50 (IGROV1; Homo sapiens, IGROV-1, read-out: GI50 Conc. per Cell Line) was 3.04 µM. For the same compound, the CC50 (IGROV1; Homo sapiens, IGROV-1, read-out: LC50 (the source's name)) was 52.4 µM, the TGI (IGROV1) was 11.40 µM and the GI50 (SK-OV-3; [2]) was 11.4 µM. For the same compound, the CC50 (SK-OV-3; [3]) was over 100 µM, the TGI (SK-OV-3) was 39.60 µM and the GI50 (UACC-257; [2]) was 3.37 µM. For the same compound, the CC50 (UACC-257; [3]) was over 100 µM, the TGI (UACC-257) was 15.40 µM and the TGI (BT-549) was 9.70 µM. The GI50 (BT-549; [2]) was 2.84 µM, the CC50 (BT-549; [3]) was 50.5 µM and the GI50 (OVCAR-4; [2]) was 2.75 µM. For the same compound, the CC50 (OVCAR-4; [3]) was over 100 µM, the TGI (OVCAR-4) was 8.64 µM and the TGI (HCT-116) was 6.90 µM. The GI50 (HCT-116; [2]) was 2.25 µM, the CC50 (HCT-116; [3]) was 82.3 µM and the TGI (DU-145) was 21.40 µM. For the same compound, the GI50 (DU-145; [2]) was 3.99 µM, the CC50 (DU-145; [3]) was over 100 µM and the TGI (CCRF-CEM) was 17.70 µM. It also gave a GI50 (CCRF-CEM; [2]) of 0.591 µM, a CC50 (CCRF-CEM; [3]) of over 100 µM and a GI50 (UACC-62; [2]) of 3.51 µM. It also gave a CC50 (UACC-62; [3]) of 52.2 µM, a TGI (UACC-62) of 14.90 µM and a GI50 (NCI-H522; [2]) of 3.05 µM. The CC50 (NCI-H522; [3]) was over 100 µM, the TGI (NCI-H522) was 11.70 µM and the GI50 (Ovarian Cancer subpanel; Homo sapiens, Ovarian Cancer, average sensitivity of all subpanel cell lines, read-out: GI50 Subpanel MID b) was 5.77 µM. For the same compound, the “GI50 Selectivity Ratio (MID a/MID b)” value (Ovarian Cancer subpanel; Ovarian Cancer subpanel) was 0.57, the GI50 (Prostate Cancer subpanel; Homo sapiens, Prostate Cancer, average sensitivity of all subpanel cell lines, read-out: GI50 Subpanel MID b) was 2.2 µM and the “GI50 Selectivity Ratio (MID a/MID b)” value (Prostate Cancer subpanel; Prostate Cancer subpanel) was 1.49. For the same compound, the GI50 (SNB-19; [2]) was 7.48 µM, the CC50 (SNB-19; [3]) was over 100 µM and the TGI (SNB-19) was 32.40 µM. It also gave a GI50 (NCI-H226; [2]) of 5.03 µM, a CC50 (NCI-H226; [3]) of over 100 µM and a TGI (NCI-H226) of 31.20 µM. It also gave a GI50 (U251; Homo sapiens, U-251, read-out: GI50 Conc. per Cell Line) of 2.92 µM, a CC50 (U251; Homo sapiens, U-251, read-out: LC50 (the source's name)) of 48 µM and a TGI (U251) of 10.80 µM. It also gave a TGI (ACHN) of 31.90 µM, a GI50 (ACHN; [2]) of 4.36 µM and a CC50 (ACHN; [3]) of over 100 µM. For the same compound, the TGI (CAKI-1) was 16.10 µM, the GI50 (CAKI-1; [2]) was 3.49 µM and the CC50 (CAKI-1; [3]) was 85.4 µM. It also gave a GI50 ([1]; average sensitivity of all cell lines, read-out: MID a (GI50)) of 3.28 µM and a GI50 ([1]; five-dose assay, range over cell lines, read-out: GI50 range over the examined cell lines) of 0.42 to 8.99 µM.
